According to patent US11505543B2, “4-oxo-3,4-dihydroquinazoline compounds as inhibitors of human immunodeficiency virus replication” (VIIV HEALTHCARE UK (NO.5) LIMITED, priority 2018, dated 2022):
pEC50: −log10 of the molar value.

What was measured:
Assay type in all cases: cell-based
[1] = tested on: uninfected MT2 cells; assay: Compound cytotoxicity, XTT-based colorimetric assay; settings: day 4, XTT
Summary of the method: (§1)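 Run under the antiviral-assay protocol but without virus. Viability was read on day 4 and CC50 values were derived from the readout.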

[2] = tested on: recombinant NL4-3 virus (nef section replaced with Renilla luciferase gene) in MT-2 cells; assay: HIV cell culture assay (antiviral activity, luciferase readout); settings: serial dilutions of compound
Summary of the method: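 Test compound in serial dilution was present while MT-2 cells were infected for 4–5 days with recombinant NL4-3 virus made in 293T cells. Antiviral activity was quantified as Renilla luciferase activity, read with a live-cell substrate. EC50 came from the median-effect equation.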

[3] = Compound cytotoxicity, XTT-based colorimetric assay; settings: human, uninfected MT2 cells, day 4, XTT
Summary of the method: as §1

[4] = MT-2 cells infected for 4-5 days with recombinant NL4-3 Renilla luciferase virus
[5] = Renilla, NL43, MT-2 cells infected for 4-5 days with recombinant NL4-3 Renilla luciferase virus

| SMILES | CC50 [1] [nM] | pEC50 [2, 4] | pEC50 [2, 5] | CC50 at 4 day [3] [nM] |
| --- | --- | --- | --- | --- |
| O=C(Cn1nc(C(F)F)c2c1C(F)(F)[C@@H]1C[C@H]21)N[C@@H](Cc1cc(F)cc(F)c1)c1nc2cc(-c3ccccc3F)ccc2c(=O)n1-c1ccc(Cl)c2c(NS(=O)(=O)C3CC3)nn(CC(F)F)c12 (atropisomer, axis not shown; (aR)) [Example 8, N-((S)-1-(3-(4-chloro-3-(cyclopropanesulfonamido)-1-(2,2-difluoroethyl)-1H-indazol-7-yl)-7-(2-fluorophenyl)-4-oxo-3,4-dihydroquinazolin-2-yl)-2-(3,5-difluorophenyl)ethyl)-2-((3bS,4aR)-3-(difluoromethyl)-5,5-difluoro-3b,4,4a,5-tetrahydro-1H-cyclopropa[3,4]cyclopenta[1,2-c]pyrazol-1-yl)acetamide] | > 1000 | 9.21 |  |  |
| O=C(Cn1nc(C(F)F)c2c1C(F)(F)[C@@H]1C[C@H]21)N[C@@H](Cc1cc(F)cc(F)c1)c1nc2cc(-c3ccccc3F)ccc2c(=O)n1-c1ccc(Cl)c2c(NS(=O)(=O)C3CC3)nn(CC(F)F)c12 (atropisomer, axis not shown; (aR)) [Example 115, N-((S)-1-(3-(4-chloro-3-(cyclopropanesulfonamido)-1-(2,2-difluoroethyl)-1H-indazol-7-yl)-7-(2-fluorophenyl)-4-oxo-3,4-dihydroquinazolin-2-yl)-2-(3,5-difluorophenyl)ethyl)-2-((3bS,4aR)-3-(difluoromethyl)-5,5-difluoro-3b,4,4a,5-tetrahydro-1H-cyclopropa[3,4]cyclopenta[1,2-c]pyrazol-1-yl)acetamide] | > 10000 |  | 9.33 |  |
| Cn1nc(NS(C)(=O)=O)c2c(Cl)ccc(-n3c([C@H](Cc4cc(F)cc(F)c4)NC(=O)Cn4ccc(C5CC5)n4)nc4cc(-c5ccccc5F)ccc4c3=O)c21 (single isomer, unassigned) [Example 4] | > 1000 | 8.96 |  |  |
| Cn1nc(NS(C)(=O)=O)c2c(Cl)ccc(-n3c([C@H](Cc4cc(F)cc(F)c4)NC(=O)Cn4nc(C(F)F)c5c4C(F)(F)[C@@H]4C[C@H]54)nc4cc(-c5ccccc5F)ccc4c3=O)c21 (single isomer, unassigned) [Example 5] | > 1000 |  | 7.20 |  |
| Cn1nc(NS(C)(=O)=O)c2c(Cl)ccc(-n3c([C@H](Cc4cc(F)cc(F)c4)NC(=O)Cn4nc(C(F)F)c5c4C(F)(F)[C@@H]4C[C@H]54)nc4cc(-c5ccccc5F)ccc4c3=O)c21 (single isomer, unassigned) [Example 6] | > 1000 | 9.52 |  |  |
| CC(C(=O)N[C@@H](Cc1cc(F)cc(F)c1)c1nc2cc(-c3ccccc3F)ccc2c(=O)n1-c1ccc(Cl)c2c(NS(=O)(=O)C3CC3)nn(CC(F)F)c12)n1ccc(C2CC2)n1 (single isomer, unassigned) [Example 138] | > 500 | 8.05 |  |  |
| Cn1nc(NS(C)(=O)=O)c2c(Cl)ccc(-n3c([C@H](Cc4cc(F)cc(F)c4)NC(=O)Cn4nc(C(F)F)c5c4C(F)(F)[C@@H]4C[C@H]54)nc4cc(-c5ccc(F)cc5)ccc4c3=O)c21 [Example 193, N-((S)-1-(3-(4-chloro-1-methyl-3-(methylsulfonamido)-1H-indazol-7-yl)-7-(4-fluorophenyl)-4-oxo-3,4-dihydroquinazolin-2-yl)-2-(3,5-difluorophenyl)ethyl)-2-((3bS,4aR)-3-(difluoromethyl)-5,5-difluoro-3b,4,4a,5-tetrahydro-1H-cyclopropa[3,4]cyclopenta[1,2-c]pyrazol-1-yl)acetamide] |  |  | 9.02 | > 1000 |
| Cn1nc(NS(C)(=O)=O)c2c(Cl)ccc(-n3c([C@H](Cc4cc(F)cc(F)c4)NC(=O)Cn4nc(C(F)F)c5c4C(F)(F)[C@@H]4C[C@H]54)nc4cc(-c5ccc(Cl)c(F)c5)ccc4c3=O)c21 [Example 194, N-((S)-1-(3-(4-chloro-1-methyl-3-(methylsulfonamido)-1H-indazol-7-yl)-7-(4-chloro-3-fluorophenyl)-4-oxo-3,4-dihydroquinazolin-2-yl)-2-(3,5-difluorophenyl)ethyl)-2-((3bS,4aR)-3-(difluoromethyl)-5,5-difluoro-3b,4,4a,5-tetrahydro-1H-cyclopropa[3,4]cyclopenta[1,2-c]pyrazol-1-yl)acetamide] |  |  | 8.11 | > 1000 |
| Cn1nc(NS(C)(=O)=O)c2c(Cl)ccc(-n3c([C@H](Cc4cc(F)cc(F)c4)NC(=O)Cn4nc(C(F)F)c5c4C(F)(F)[C@@H]4C[C@H]54)nc4cc(-c5ccccc5)ccc4c3=O)c21 [Example 195, N-((S)-1-(3-(4-chloro-1-methyl-3-(methylsulfonamido)-1H-indazol-7-yl)-4-oxo-7-phenyl-3,4-dihydroquinazolin-2-yl)-2-(3,5-difluorophenyl)ethyl)-2-((3bS,4aR)-3-(difluoromethyl)-5,5-difluoro-3b,4,4a,5-tetrahydro-1H-cyclopropa[3,4]cyclopenta[1,2-c]pyrazol-1-yl)acetamide] |  |  | 9.44 | > 1000 |
